# Data reported in the supplement of paper PMC13380429.
# Tests used:
# HepG2 [1] = test: cell viability relative to DMSO; higher = less toxic; conditions: 72 h
# Calu-3 [2] = test: as above; conditions: 72 h
# U2OS [3] = test: as above; conditions: 72 h
# Caco-2 [4] = test: as above; conditions: 72 h
# Vero E6 [5] = test: as above; conditions: 72 h
# A549-ACE2 [6] = test: drug-induced phospholipidosis relative to tamoxifen; higher = more phospholipidosis
# [7] = test system: A549-ACE2 infected with SARS-CoV-2; test: SARS-CoV-2 infection rate relative to DMSO; higher = more infection; conditions: 24 h
# A549-ACE2 [8] = test: phospholipidosis EC50; higher = less potent phospholipidosis inducer
# [9] = test system: A549-ACE2 infected with SARS-CoV-2; test: morphology score (similarity to uninfected cells); higher = more like uninfected cells; conditions: 24 h
# [10] = test system: A549-ACE2 infected with SARS-CoV-2; test: cell count relative to DMSO; higher = less toxic; conditions: 24 h
# HepG2 [11] = test: relative viability EC50 (midpoint between 100% and the lowest measured viability); higher = less toxic; conditions: 72 h
# Calu-3 [12] = test: as above; conditions: 72 h
# U2OS [13] = test: as above; conditions: 72 h
# Caco-2 [14] = test: as above; conditions: 72 h
# Vero E6 [15] = test: as above; conditions: 72 h
# HepG2 [16] = test: drug sensitivity score (DSS) for viability; higher = more toxic; extreme values may be limits of the assay; conditions: 72 h
# Calu-3 [17] = test: as above; conditions: 72 h
# U2OS [18] = test: as above; conditions: 72 h
# Caco-2 [19] = test: as above; conditions: 72 h
# Vero E6 [20] = test: as above; conditions: 72 h
smiles,measurement,setting,value
CC(CN1c2ccccc2Sc2ccccc21)N(C)C (stereo unspecified) [promethazine],cell viability,HepG2 [1]; 1 nM,119%
same,cell viability,HepG2 [1]; 10 nM,96.4%
same,cell viability,HepG2 [1]; 100 nM,78.1%
same,cell viability,HepG2 [1]; 1000 nM,103%
same,cell viability,HepG2 [1]; 10000 nM,83.3%
same,cell viability,Calu-3 [2]; 1 nM,112%
same,cell viability,Calu-3 [2]; 10 nM,103%
same,cell viability,Calu-3 [2]; 100 nM,98.6%
same,cell viability,Calu-3 [2]; 1000 nM,103%
same,cell viability,Calu-3 [2]; 10000 nM,96.1%
same,cell viability,U2OS [3]; 1 nM,103%
same,cell viability,U2OS [3]; 10 nM,108%
same,cell viability,U2OS [3]; 100 nM,97.8%
same,cell viability,U2OS [3]; 1000 nM,100%
same,cell viability,U2OS [3]; 10000 nM,94.9%
same,cell viability,Caco-2 [4]; 1 nM,99.8%
same,cell viability,Caco-2 [4]; 10 nM,99%
same,cell viability,Caco-2 [4]; 100 nM,106%
same,cell viability,Caco-2 [4]; 1000 nM,107%
same,cell viability,Caco-2 [4]; 10000 nM,92.7%
same,cell viability,Vero E6 [5]; 1 nM,101%
same,cell viability,Vero E6 [5]; 10 nM,95.5%
same,cell viability,Vero E6 [5]; 100 nM,99.4%
same,cell viability,Vero E6 [5]; 1000 nM,102%
same,cell viability,Vero E6 [5]; 10000 nM,80.5%
same,drug-induced phospholipidosis,"A549-ACE2 [6]; 0.3 µM, 24 h",1.08%
same,drug-induced phospholipidosis,"A549-ACE2 [6]; 0.3 µM, 48 h",-0.1%
same,drug-induced phospholipidosis,"A549-ACE2 [6]; 0.3 µM, 72 h",1.14%
same,drug-induced phospholipidosis,"A549-ACE2 [6]; 0.833333 µM, 24 h",0.17%
same,drug-induced phospholipidosis,"A549-ACE2 [6]; 0.833333 µM, 48 h",0.2%
same,drug-induced phospholipidosis,"A549-ACE2 [6]; 0.833333 µM, 72 h",0.443%
same,drug-induced phospholipidosis,"A549-ACE2 [6]; 3.33333 µM, 24 h",9.69%
same,drug-induced phospholipidosis,"A549-ACE2 [6]; 3.33333 µM, 48 h",6.54%
same,drug-induced phospholipidosis,"A549-ACE2 [6]; 3.33333 µM, 72 h",8.72%
same,drug-induced phospholipidosis,"A549-ACE2 [6]; 6.66667 µM, 24 h",43.2%
same,drug-induced phospholipidosis,"A549-ACE2 [6]; 6.66667 µM, 48 h",31.9%
same,drug-induced phospholipidosis,"A549-ACE2 [6]; 6.66667 µM, 72 h",23.6%
same,drug-induced phospholipidosis,"A549-ACE2 [6]; 10 µM, 24 h",62.1%
same,drug-induced phospholipidosis,"A549-ACE2 [6]; 10 µM, 48 h",55.6%
same,drug-induced phospholipidosis,"A549-ACE2 [6]; 10 µM, 72 h",50.4%
same,drug-induced phospholipidosis,"A549-ACE2 [6]; 30 µM, 24 h",92%
same,drug-induced phospholipidosis,"A549-ACE2 [6]; 30 µM, 48 h",96.7%
same,drug-induced phospholipidosis,"A549-ACE2 [6]; 30 µM, 72 h",102%
same,SARS-CoV-2 infection rate,[7]; 0.3 µM,93%
same,SARS-CoV-2 infection rate,[7]; 3 µM,51%
same,SARS-CoV-2 infection rate,[7]; 10 µM,63%
same,SARS-CoV-2 infection rate,[7]; 30 µM,11%
same,phospholipidosis EC50,A549-ACE2 [8]; 24 h,7.49 µM
same,phospholipidosis EC50,A549-ACE2 [8]; 48 h,9.37 µM
same,phospholipidosis EC50,A549-ACE2 [8]; 72 h,11.1 µM
same,morphology score,[9]; 0.3 µM,0.09
same,morphology score,[9]; 3 µM,0.72
same,morphology score,[9]; 10 µM,0.76
same,morphology score,[9]; 30 µM,0.72
same,cell count,[10]; 0.3 µM,103%
same,cell count,[10]; 3 µM,112%
same,cell count,[10]; 10 µM,118%
same,cell count,[10]; 30 µM,115%
same,relative viability EC50,HepG2 [11],> 10 µM
same,relative viability EC50,Calu-3 [12],> 10 µM
same,relative viability EC50,U2OS [13],> 10000 nM
same,relative viability EC50,Caco-2 [14],> 10 µM
same,relative viability EC50,Vero E6 [15],> 10 µM
same,drug sensitivity score,HepG2 [16],0.3
same,drug sensitivity score,Calu-3 [17],0
same,drug sensitivity score,U2OS [18],0
same,drug sensitivity score,Caco-2 [19],0
same,drug sensitivity score,Vero E6 [20],0.4
Cn1cc(-c2cnn3c(N)c(Br)c([C@@H]4CCCNC4)nc23)cn1,cell viability,HepG2 [1]; 1 nM,98.8%
same,cell viability,HepG2 [1]; 10 nM,101%
same,cell viability,HepG2 [1]; 100 nM,88.7%
same,cell viability,HepG2 [1]; 1000 nM,75%
same,cell viability,HepG2 [1]; 10000 nM,52%
same,cell viability,Calu-3 [2]; 1 nM,99.2%
same,cell viability,Calu-3 [2]; 10 nM,95.1%
same,cell viability,Calu-3 [2]; 100 nM,97.6%
same,cell viability,Calu-3 [2]; 1000 nM,93.3%
same,cell viability,Calu-3 [2]; 10000 nM,100%
same,cell viability,U2OS [3]; 1 nM,98.3%
same,cell viability,U2OS [3]; 10 nM,92%
same,cell viability,U2OS [3]; 100 nM,100%
same,cell viability,U2OS [3]; 1000 nM,73.4%
same,cell viability,U2OS [3]; 10000 nM,13.7%
same,cell viability,Caco-2 [4]; 1 nM,92.5%
same,cell viability,Caco-2 [4]; 10 nM,100%
same,cell viability,Caco-2 [4]; 100 nM,93.4%
same,cell viability,Caco-2 [4]; 1000 nM,97.7%
same,cell viability,Caco-2 [4]; 10000 nM,86.2%
same,cell viability,Vero E6 [5]; 1 nM,102%
same,cell viability,Vero E6 [5]; 10 nM,102%
same,cell viability,Vero E6 [5]; 100 nM,98.2%
same,cell viability,Vero E6 [5]; 1000 nM,95.7%
same,cell viability,Vero E6 [5]; 10000 nM,82.1%
same,drug-induced phospholipidosis,"A549-ACE2 [6]; 0.3 µM, 24 h",0.22%
same,drug-induced phospholipidosis,"A549-ACE2 [6]; 0.3 µM, 48 h",3.9%
same,drug-induced phospholipidosis,"A549-ACE2 [6]; 0.3 µM, 72 h",6.85%
same,drug-induced phospholipidosis,"A549-ACE2 [6]; 0.833333 µM, 24 h",3.23%
same,drug-induced phospholipidosis,"A549-ACE2 [6]; 0.833333 µM, 48 h",4.18%
same,drug-induced phospholipidosis,"A549-ACE2 [6]; 0.833333 µM, 72 h",4.55%
same,drug-induced phospholipidosis,"A549-ACE2 [6]; 3.33333 µM, 24 h",6.07%
same,drug-induced phospholipidosis,"A549-ACE2 [6]; 3.33333 µM, 48 h",8.86%
same,drug-induced phospholipidosis,"A549-ACE2 [6]; 3.33333 µM, 72 h",10.4%
same,drug-induced phospholipidosis,"A549-ACE2 [6]; 6.66667 µM, 24 h",18.9%
same,drug-induced phospholipidosis,"A549-ACE2 [6]; 6.66667 µM, 48 h",16.4%
same,drug-induced phospholipidosis,"A549-ACE2 [6]; 6.66667 µM, 72 h",11.1%
same,drug-induced phospholipidosis,"A549-ACE2 [6]; 10 µM, 24 h",19.9%
same,drug-induced phospholipidosis,"A549-ACE2 [6]; 10 µM, 48 h",18.3%
same,drug-induced phospholipidosis,"A549-ACE2 [6]; 10 µM, 72 h",15.4%
same,drug-induced phospholipidosis,"A549-ACE2 [6]; 30 µM, 24 h",52.2%
same,drug-induced phospholipidosis,"A549-ACE2 [6]; 30 µM, 48 h",60.6%
same,SARS-CoV-2 infection rate,[7]; 0.3 µM,102%
same,SARS-CoV-2 infection rate,[7]; 3 µM,87%
same,SARS-CoV-2 infection rate,[7]; 10 µM,50%
same,SARS-CoV-2 infection rate,[7]; 30 µM,13%
same,morphology score,[9]; 0.3 µM,-0.17
same,morphology score,[9]; 3 µM,0.41
same,morphology score,[9]; 10 µM,0.67
same,morphology score,[9]; 30 µM,0.84
same,cell count,[10]; 0.3 µM,99%
same,cell count,[10]; 3 µM,110%
same,cell count,[10]; 10 µM,106%
same,cell count,[10]; 30 µM,79%
same,relative viability EC50,Calu-3 [12],> 10 µM
same,relative viability EC50,U2OS [13],1380 nM
same,relative viability EC50,Caco-2 [14],> 10 µM
same,relative viability EC50,Vero E6 [15],> 10 µM
same,drug sensitivity score,HepG2 [16],5.7
same,drug sensitivity score,Calu-3 [17],0
same,drug sensitivity score,U2OS [18],8.7
same,drug sensitivity score,Caco-2 [19],0
same,drug sensitivity score,Vero E6 [20],0.9
